Test results from US20210393645A1, “TREATMENT FOR PROGRESSIVE MULTIPLE SCLEROSIS” (UTI LIMITED PARTNERSHIP, priority 2016, published 2021).
Entries after “also recorded” stand apart in the source; their conditions may differ. Where a name gives a salt, the structure may show the parent alone. Read-outs that look alike come from different tables or passages of the source.

Assays:
human neurons [1] = assay: Iron (FeSO4) mediated neurotoxicity screening, MAP-2 positive neurons counted; type: cell-based; settings: for viability at 10 µM: Homo sapiens, Neuron, read-out: Drug % control (mean): number of neurons normalized to untreated control
Outline: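 Fetal human neurons (15-20 wk), plated with cytosine arabinoside, were pre-incubated 1 h with compounds (10 mM DMSO stocks) before FeSO4 at 25-50 μM final. Cells fixed a day later; MAP-2 immunostaining plus Hoechst nuclei imaged automatically, sites per well averaged; quadruplicates.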

human neurons [2] = assay: Mitochondrial damage to neurons induced by rotenone; type: cell-based; settings: rotenone 10 μM, drug 10 μM
Experimental: Human neurons were isolated from brain tissues of therapeutically aborted 15-20 week old fetuses, in accordance with ethics approval of the University of Calgary ethics committee, after written informed consent of the pregnant donors. Neurons were isolated as previously described (Vecil et al., 2000) brain specimens were washed in phosphate buffered saline (PBS) to remove blood, followed by removal of meninges. […] Thereafter, the digestion was stopped by addition of 4 ml fetal calf serum (FCS). The solution was filtered through a 132 μm filter and centrifuged (three times, 1,200 rpm, 10 min). Cells were cultured in feeding medium of minimal essential medium (MEM) supplemented with 10% fetal bovine serum (FBS), 1 μM sodium pyruvate, 10 μM glutamine, 1× non-essential amino acids, 0.1% dextrose and 1% penicillin/streptomycin (all culture supplements from Invitrogen, Burlington, Canada). […] For experiments, the neuron-enriched cultures were retrypsinized and cells were plated in poly-L-ornithine pre-coated 96-well plates at a density of 100,000 cells/well in 100 μl of the complete medium supplemented with cytosine arabinoside. […] All conditions were performed in quadruplicates. A day later cells were fixed using 4% paraformaldehyde (PFA) and stored in PBS in 4° C.
The iron stock solution was prepared using 27.8 mg iron(II) sulfate heptahydrate (FeSO4) (Sigma-Aldrich, Oakville, Canada), 10 μl of 17.8M sulfuric acid and 10 ml deionized distilled water. After filtering with a 0.2 μm filter, FeSO4 was added to cells in a final concentration of 25-50 μM in a volume of 50 μl medium to the cells. Rotenone was dissolved in dimethyl sulfoxide (DMSO) and used in a final concentration of 10 μM.

T-cells = assay: Proliferation of T-lymphocytes (3H-thymidine) in anti-CD3/anti-CD28 activated splenocytes; type: cell-based, mouse; settings: drug 10 μM; for inhibition at 10 µM: Mus musculus, T-cell, 72 h, read-out: mean reduction of 3H-thymidine incorporation (T-cell proliferation); for toxic effects in the T-cell proliferation test: data not shown
Experimental: A previously published protocol was used for isolating and activating T-cells (Keough et al., Nature Comm 7:11312, 2016). Spleens from female C57B16 mice were harvested and after mechanical dissociation the cell suspension was passed through a 70 μm cell strainer and separated by Ficoll gradient (1800 RPM, 30 min). Splenocytes were plated (2.5×10^5 cells in 100 μl/well) in anti-CD3 antibody coated 96-well plates (1,000 ng m1^−1 plate-bound anti-CD3 and 1,000 ng m1^−1 anti-CD28 suspended in media) to activate T-cells. Directly before plating, wells were treated with respective drugs in a final concentration of 10 μM. Cells were cultured in RPMI 1640 medium, supplemented with 10% FBS, 1 μM sodium pyruvate, 2 mM L-alanyl-L-glutamine, 1% penicillin/streptomycin, 1% HEPES and 0.05 mM 2-mercaptoethanol (all supplements were from Invitrogen). After 48 h, ^3H-thymidine was added in a concentration of 1 μCi per well, and cells were harvested after 24 h on filter mats. Mats were then evaluated for radioactivity (counts per minute) using a liquid scintillation counter.

[3] = Hydroxyl radical antioxidant capacity (HORAC) assay; type: biochemical; settings: vs 12.5 μM gallic acid (=1), 60 min
Experimental: In this assay, hydroxyl radicals generated by a Co(II)-mediated Fenton-like reaction oxidize fluorescein causing loss of fluorescence (Ou et al., J Argricultural Food Chemistry 50:2772-2777, 2002). The presence of an anti-oxidant reduces the loss of fluorescence and this can be monitored every 5 min over a period of 60 min with a Spectra Max Gemini XS plate reader (Molecular Devices, Sunnyvale, Calif., USA) and the software SoftMax Pro version 5. For monitoring fluorescence, we used an excitation wavelength of λ=485 nm and an emission wavelength of λ=520 nm.
The biochemical cell free hydroxyl radical antioxidant capacity (HORAC) assay investigates the prevention of hydroxyl radical mediated oxidation of to fluorescein in comparison to the strong anti-oxidant gallic acid. The generation of hydroxyl radicals by a cobalt-driven Fenton-like reaction oxidizes fluorescein with progressive loss of fluorescence. The presence of an anti-oxidant reduces the loss of fluorescence over time.
We compared the area under the curve of test compounds to that elicited by gallic acid to obtain the gallic acid equivalent (GAE).

[4] = drug 10 μM 1 h before FeSO4 25 or 50 μM, MAP-2 neurons after 24 h

Compound	viability at 10 µM (human neurons [1]; [4]) [%]	further results
CC(CN1c2ccccc2Sc2ccccc21)N(C)C (stereo not drawn) [PROMETHAZINE HYDROCHLORIDE]	105	neurotoxicity by rotenone (mitochondrial damage) (human neurons [2]): reduced neurotoxicity; inhibition at 10 µM (T-cells; vs activated splenocytes): 74.6%
O=C1c2c(O)ccc(O)c2C(=O)c2c(NCCNCCO)ccc(NCCNCCO)c21 [MITOXANTHRONE HYDROCHLORIDE]	52.5	inhibition at 10 µM (T-cells; vs activated splenocytes): 99.7%; toxic effects in the T-cell proliferation test (T-cells): toxic effects
CN(C)CCCN1c2ccccc2CCc2ccccc21 [IMIPRAMINE HYDROCHLORIDE]	106	inhibition at 10 µM (T-cells; vs activated splenocytes): 66.4%
CN(C)CCCN1c2ccccc2Sc2ccc(Cl)cc21 [CHLORPROMAZINE]	98.8	inhibition at 10 µM (T-cells; vs activated splenocytes): 99.4%; toxic effects in the T-cell proliferation test (T-cells): toxic effects
CC(CN(C)C)CN1c2ccccc2CCc2ccccc21 (stereo not drawn) [TRIMIPRAMINE MALEATE]	88.6	neurotoxicity by rotenone (mitochondrial damage) (human neurons [2]): reduced neurotoxicity; mean HORAC-GAE (gallic acid equivalents) [3]: 4.2; inhibition at 10 µM (T-cells; vs activated splenocytes): 54%
CC(CCc1ccccc1)NCC(O)c1ccc(O)c(C(N)=O)c1 (stereo not drawn) [LABETALOL HYDROCHLORIDE]	54.4	neurotoxicity by rotenone (mitochondrial damage) (human neurons [2]; HYDROCHLORIDE): reduced neurotoxicity; also recorded: active against damage to the mitochondrial respiratory chain; inhibition at 10 µM (T-cells; vs activated splenocytes): 26.8%
OCCN(CCO)c1nc(N2CCCCC2)c2nc(N(CCO)CCO)nc(N3CCCCC3)c2n1 [DIPYRIDAMOLE]	165	inhibition at 10 µM (T-cells; vs activated splenocytes): 89.3%
OC(c1cc(C(F)(F)F)nc2c(C(F)(F)F)cccc12)C1CCCCN1 (stereo not drawn) [MEFLOQUINE]	47	inhibition at 10 µM (T-cells; vs activated splenocytes): 62.3%
TRIMEPRAZINE TARTRATE	–	Drug % control (mean): number of neurons normalized to untreated control (human neurons [1]; [4]): 73.31%; mean reduction of 3H-thymidine incorporation (T-cell proliferation) (T-cells; vs activated splenocytes): 43.3%
N[C@@H](C(=O)N[C@@H]1C(=O)N2C(C(=O)O)=C(Cl)CS[C@H]12)c1ccccc1 [CEFACLOR]	89.9	inhibition at 10 µM (T-cells; vs activated splenocytes): 23%
CC(=O)Oc1ccc(C(c2ccc(OC(C)=O)cc2)c2ccccn2)cc1 [BISACODYL]	93.3	–
CN(C)c1nc(N(C)C)nc(N(C)C)n1 [ALTRETAMINE]	4.2	–
CN1CCN(C2=Nc3ccccc3Oc3ccc(Cl)cc32)CC1 [LOXAPINE SUCCINATE]	65.9	–
OCCOCCN1CCN(C(c2ccccc2)c2ccc(Cl)cc2)CC1 (stereo not drawn) [HYDROXYZINE PAMOATE]	4.01	–
CN1CCC(OC(c2ccccc2)c2ccccc2)CC1 [HYDROCHLORIDE]	4.61	–
Cc1noc(NS(=O)(=O)c2ccc(N)cc2)c1C [SULFISOXAZOLE]	38.3	–
CC(=O)S[C@@H]1CC2=CC(=O)CC[C@]2(C)[C@H]2CC[C@@]3(C)[C@@H](CC[C@@]34CCC(=O)O4)[C@H]12 [SPIRONOLACTONE]	37.1	–
NCC[C@H](O)C(=O)N[C@@H]1C[C@H](N)[C@@H](O[C@H]2O[C@H](CN)[C@@H](O)[C@H](O)[C@H]2O)[C@H](O)[C@H]1O[C@H]1O[C@H](CO)[C@@H](O)[C@H](N)[C@H]1O.O=S(=O)(O)O.O=S(=O)(O)O [AMIKACIN SULFATE]	–	Drug % control (mean): number of neurons normalized to untreated control (human neurons [1]; [4]): 35.92%
O=C(CCCN1CCC(O)(c2ccc(Cl)cc2)CC1)c1ccc(F)cc1 [HALOPERIDOL]	6.12	–
N#Cc1ccc2c(c1)N(CCCN1CCC(O)CC1)c1ccccc1S2 [PERICIAZINE]	82	protection from FeSO4-mediated neurotoxicity (in words) (human neurons [1]; drug 10 μM, human neurons): strong protection; neurotoxicity by rotenone (mitochondrial damage) (human neurons [2]): reduced neurotoxicity; inhibition at 10 µM (T-cells; vs activated splenocytes): 28%

Compound	viability at 10 µM (human neurons [1]; [4]) [%]	further results
CCN(CC)CCNC(=O)c1ccc(N)cc1 [PROCAINAMIDE HYDROCHLORIDE]	64.3	–
COc1c(C)c2c(c(O)c1C/C=C(\C)CCC(=O)O)C(=O)OC2 [MYCOPHENOLIC ACID]	45.7	–
CC(C)NCC(O)COc1cccc2[nH]ccc12 (stereo not drawn) [PINDOLOL]	62.6	–
CCOc1nc2cccc(C(=O)OC(C)OC(=O)OC3CCCCC3)c2n1Cc1ccc(-c2ccccc2-c2nn[nH]n2)cc1 (stereo not drawn) [CANDESARTAN CILEXTIL]	–	Drug % control (mean): number of neurons normalized to untreated control (human neurons [1]; [4]): 35.48%
Cc1ccccc1C(OCCN(C)C)c1ccccc1 (stereo not drawn) [ORPHENADRINE CITRATE]	54.5	–
CC1(C)S[C@@H]2[C@H](NC(=O)[C@H](N)c3ccc(O)cc3)C(=O)N2[C@H]1C(=O)O [AMOXICILLIN]	6.41	–
C[C@@H](CO)NC(=O)[C@@H]1C=C2c3cccc4[nH]cc(c34)C[C@H]2N(C)C1 [ERGONOVINE MALEATE]	42.7	–
CN1CCN(CCCN2c3ccccc3Sc3ccc(C(F)(F)F)cc32)CC1 [TRIFLUOPERAZINE HYDROCHLORIDE]	4.42	–
CC(=O)Oc1ccccc1C(=O)O [ASPIRIN]	68.2	–
CC12CC3CC(C)(C1)CC(N)(C3)C2 [MEMANTINE HYDROCHLORIDE]	53.2	increase of T-cell proliferation (T-cells; vs activated splenocytes): 17.5%
CCOC(=O)C1=C(COCCN)NC(C)=C(C(=O)OC)C1c1ccccc1Cl (stereo not drawn) [AMLODIPINE BESYLATE]	93.1	–
Clc1cccc(Cl)c1N=C1NCCN1 [CLONIDINE HYDROCHLORIDE]	–	viability at 10 µM (human neurons [1]; 24 h): 7.47%
CCCNCC(O)COc1ccccc1C(=O)CCc1ccccc1 (stereo not drawn) [PROPAFENONE HYDROCHLORIDE]	51.3	–
CRESOL	–	Drug % control (mean): number of neurons normalized to untreated control (human neurons [1]; [4]): 6.04%
C1N2CN3CN1CN(C2)C3 [METHENAMINE]	1.94	–
CCn1cc(C(=O)O)c(=O)c2cc(F)c(N3CCNCC3)cc21 [NORFLOXACIN]	13.6	–
CCOC(=O)N1CCC(=C2c3ccc(Cl)cc3CCc3cccnc32)CC1 [LORATADINE]	44.3	–
CC(C)NCC(O)COc1cccc2ccccc12.Cl (racemic) [PROPRANOLOL HYDROCHLORIDE (+/−)]	–	Drug % control (mean): number of neurons normalized to untreated control (human neurons [1]; [4]): 66.49%
Cc1c(OCC(F)(F)F)ccnc1C[S+]([O-])c1nc2ccccc2[nH]1 (stereo not drawn) [LANSOPRAZOLE]	63.9	–
Cc1cnc(NC(=O)C2=C(O)c3ccccc3S(=O)(=O)N2C)s1 [MELOXICAM]	59.5	–
